The target of assay [1] is T1, Thymidine kinase (Human herpesvirus 2, UniProt Q6L709).
T1 sequence (Q6L709 whole entry): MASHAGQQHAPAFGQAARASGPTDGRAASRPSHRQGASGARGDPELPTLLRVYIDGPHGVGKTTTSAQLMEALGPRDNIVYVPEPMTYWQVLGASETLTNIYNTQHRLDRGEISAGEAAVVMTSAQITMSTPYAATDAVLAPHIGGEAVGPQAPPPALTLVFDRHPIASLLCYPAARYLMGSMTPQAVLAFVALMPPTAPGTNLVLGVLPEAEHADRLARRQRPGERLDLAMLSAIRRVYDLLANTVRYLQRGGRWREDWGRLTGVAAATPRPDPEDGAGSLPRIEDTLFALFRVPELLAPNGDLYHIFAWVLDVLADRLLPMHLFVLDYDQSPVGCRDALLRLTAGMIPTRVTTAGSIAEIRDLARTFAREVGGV
As to the kind of experiment: Inhibitory activity against HSV-2 thymidine kinase isolated from HeLa cells. The format is cell-free. The note with it: read-out: Log 1/IC50 (converted).

Assay [2] addresses T2, Thymidine kinase (Human herpesvirus 1 (strain SC16) (HHV-1) (Human herpes simplex virus1), UniProt P06479).
T2 sequence (P06479 whole entry): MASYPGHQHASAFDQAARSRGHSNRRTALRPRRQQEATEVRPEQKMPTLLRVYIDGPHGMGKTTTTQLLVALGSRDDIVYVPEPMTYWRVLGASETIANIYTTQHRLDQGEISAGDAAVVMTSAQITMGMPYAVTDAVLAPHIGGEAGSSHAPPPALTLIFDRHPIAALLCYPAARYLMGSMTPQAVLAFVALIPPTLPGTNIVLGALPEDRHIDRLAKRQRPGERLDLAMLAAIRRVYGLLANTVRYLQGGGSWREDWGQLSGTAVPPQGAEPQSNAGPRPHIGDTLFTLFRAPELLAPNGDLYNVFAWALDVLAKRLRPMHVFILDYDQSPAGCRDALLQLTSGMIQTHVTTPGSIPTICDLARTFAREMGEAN
As to the kind of experiment: Inhibitory activity against HSV-1 thymidine kinase isolated from HeLa cells. The format is cell-free. As to conditions: for IC50: read-out: Log 1/IC50 (converted).

The structures appear in SMILES notation.

Turning to `Oc1[nH]c(Nc2cccc(CCl)c2)nc2ncnc1-2`, the IC50 was 1.35 µM in assay [1] and 1.41 µM in assay [2].

Consider `Oc1[nH]c(Nc2ccc(Cl)cc2)nc2ncnc1-2`, for which the values for the IC50 in assay [1] and in assay [2] were 50.1 µM and 100 µM, respectively.

Turning to `CCCc1ccc(Nc2nc(O)c3[nH]cnc3n2)cc1`, the IC50 was 46.8 µM in assay [1] and 30.2 µM in assay [2].

With `NCc1cccc(Nc2nc(O)c3[nH]cnc3n2)c1`, the IC50 was 20 µM in assay [1] and 30.2 µM in assay [2].

Take `[N-]=[N+]=NCc1cccc(Nc2nc3ncnc-3c(O)[nH]2)c1`: the IC50 in assay [1] is 1.51 µM; in assay [2] it was 0.794 µM.

Consider `Oc1[nH]c(Nc2cccc(CBr)c2)nc2ncnc1-2`, for which the IC50 was 1.2 µM in assay [1] and 1 µM in assay [2].

Regarding `Oc1[nH]c(Nc2cccc(I)c2)nc2ncnc1-2`, the IC50 in assay [1] and in assay [2] was 1.1 µM each time.

Regarding `CC(C)c1ccc(Nc2nc(O)c3[nH]cnc3n2)cc1`, the IC50 is 100 µM in assay [1] and 200 µM in assay [2].

Take `CCCCc1ccc(Nc2nc(O)c3[nH]cnc3n2)cc1`: the IC50 in assay [1] was 50.1 µM. Also, the “Log 1/IC50” value in assay [2] (hela) is 4.3.

As for `O=c1nc(Nc2cccc(CO)c2)[nH]c2nc[nH]c12`, the figures for the IC50 in assay [1] and in assay [2] were 20 µM and 25.1 µM, respectively.

As to `Oc1[nH]c(Nc2ccc(F)c(Cl)c2)nc2ncnc1-2`, the IC50 in assay [1] was 2.51 µM; in assay [2] it was 7.94 µM.

As to `Oc1[nH]c(Nc2ccc(F)cc2)nc2ncnc1-2`, the IC50 in assay [1] is 257 µM; in assay [2], 302 µM.

On to `O=c1[nH]c(Nc2ccc(F)c(F)c2)nc2nc[nH]c12`, for which the IC50 in assay [1] is 2.19 µM; in assay [2], 50.1 µM.

`Oc1[nH]c(Nc2ccc(Cl)c(C(F)(F)F)c2)nc2ncnc1-2`: the IC50 in assay [1] was 5.01 µM; in assay [2], 20 µM.

Turning to `CCCCc1ccc(Nc2nc(O)c3[nH]cnc3n2)cc1C`, in assay [2], the IC50 was 39.8 µM.

For `CCCCCc1ccc(Nc2nc(O)c3[nH]cnc3n2)cc1`, the IC50 is 251 µM in assay [1] and 501 µM in assay [2].

Consider `CCc1cccc(Nc2nc3nc[nH]c3c(=O)[nH]2)c1`, for which the values for the IC50 in assay [1] and in assay [2] were 3.98 µM and 2.51 µM, respectively.

In the case of `Cc1ccc(Nc2nc3nc[nH]c3c(=O)[nH]2)cc1`, the IC50 in assay [1] was 6.03 µM; in assay [2] it was 50.1 µM.

Regarding `O=c1[nH]c(Nc2cccc(C(F)(F)F)c2)nc2nc[nH]c12`, the figures for the IC50 in assay [1] and in assay [2] were 0.1 µM and 0.151 µM, respectively.

Take `N#Cc1cccc(Nc2nc3ncnc-3c(O)[nH]2)c1`: the IC50 was 0.398 µM in assay [1] and 5.01 µM in assay [2].

As for `Oc1[nH]c(Nc2cccc(Br)c2)nc2ncnc1-2`, the IC50 in assay [1] was 0.603 µM; in assay [2], 1.51 µM.

For the compound `Oc1[nH]c(Nc2ccc(I)cc2)nc2ncnc1-2`, the IC50 in assay [1] was 8.91 µM; in assay [2], 39.8 µM.

For the compound `Oc1[nH]c(Nc2cccc(Cl)c2)nc2ncnc1-2`, the figures for the IC50 in assay [1] and in assay [2] were 0.347 µM and 1.51 µM, respectively.

Regarding `Oc1[nH]c(Nc2ccc(Br)cc2)nc2ncnc1-2`, the IC50 is 0.603 µM in assay [1] and 1 µM in assay [2].

On to `O=c1[nH]c(Nc2ccc(O)cc2)nc2nc[nH]c12`, for which the IC50 in assay [1] is 20 µM; in assay [2], 141 µM.

Turning to `Oc1[nH]c(Nc2ccc3ccccc3c2)nc2ncnc1-2`, the IC50 is 10 µM in assay [1] and 39.8 µM in assay [2].

For the compound `Oc1[nH]c(Nc2ccc(C(F)(F)F)cc2)nc2ncnc1-2`, the IC50 was 39.8 µM in assay [1] and 30.2 µM in assay [2].

Consider `Oc1[nH]c(Nc2ccc(Br)c(Br)c2)nc2ncnc1-2`, for which the figures for the IC50 in assay [1] and in assay [2] were 1.29 µM and 3.02 µM, respectively.

`Cc1ccc(Nc2nc(O)c3[nH]cnc3n2)cc1CO`: the IC50 was 200 µM in assay [1] and 269 µM in assay [2].

Source of the values: ChEMBL document CHEMBL1125514, “Quantitative structure-activity relationships of N2-phenylguanines as inhibitors of herpes simplex virus thymidine kinases” (J Med Chem, 1992).
